Reference: article PMC3337729 (Anesthesiology, 2011)

Experiments:
[1] = molecular target: T1, Complex I (NADH-ubiquinone oxidoreductase) (Rattus norvegicus, UniProt A6K8N6+P03889+Q5XIH3+Q641Y2); experiment: rotenone-sensitive NADH oxidation, absorbance at […] nm; format: biochemical; conditions: 0.2 mM NADH, antimycin A present
[2] = molecular target: T1, Complex I (NADH-ubiquinone oxidoreductase); experiment: as above; format: biochemical; conditions: read-out: % of control activity at 0.5 mM

Compound: NC(=O)C1=CN([C@@H]2O[C@H](COP(=O)(O)OP(=O)(O)OC[C@H]3O[C@@H](n4cnc5c(N)ncnc54)[C@H](O)[C@@H]3O)[C@@H](O)[C@H]2O)C=CC1 [NADH]
- rotenone-sensitive NADH oxidation, absorbance at 340 nm ([1]; decylubiquinone acceptor): Complex I activity was determined by the rotenone-sensitive reduction of NADH absorbance using decylubiquinone

Compound: CCCCCCCCCCC1=C(C)C(=O)C(OC)=C(OC)C1=O [decylubiquinone]
- rotenone-sensitive NADH oxidation, absorbance at 340 nm ([1]; decylubiquinone printed as 75 mM): rotenone-sensitive reduction of NADH absorbance using decylubiquinone as acceptor

Compound: FC(F)OC(Cl)C(F)(F)F (stereo not drawn) [isoflurane]
- remaining activity at 500 µM [2]: 86 ± 5%
